Laboratory results reported in US20230049350A1, “COMPOUNDS FOR TREATING BRAIN CANCER” (Purdue Pharmaceutical Products L.P., priority 2014, published 2023).
Where two headings read alike, the source gives them in different places.

Columns and labels:
U87MG = assay: GBM cell line viability IC50, U87; format: cell-based; conditions: Homo sapiens, U-87 MG
Method: (§1) In vitro experiments were devised in which a series of GBM cell lines representative for MGMT negative and MGMT positive tumour cells were used.
(§2) Compounds: 1-100 µM EDO-S101, 1-50 µM temozolomide (TMZ), 1-50 µM temozolomide + 500 nM vorinostat, 1-40 µM bendamustine, 1-40 µM bendamustine and 500 nM vorinostat.
(§3) Twelve glioblastoma cell lines representing grade III and IV gliomas and with different expression of MGMT, drug and radiotherapy sensitivity and five patient derived glioblastoma stem, cells were used (see above). Four patient-derived glioblastoma stem cells, kindly provided from J. Gregory Cairncross, and Samuel Weiss at the Hotchkiss Brain Institute, Faculty of Medicine, University of Calgary, Calgary, Alberta, Canada and one luciferase transfected, PTC#8, from Prof Angelo Vescovi, University la Bicocca, Milan were cultured in defined culture serum free medium (SFM) and in non-adherent spheres culture. Cells were resuspended in DMEM/F12 media without serum supplemented with 20 ng/ml epidermal growth factor (Sigma-Aldrich), 20 ng/ml basic fibroblast growth factor (Sigma-Aldrich), B-27 supplement 1X (Gibco, Life Technologies), and antibiotics. Treatment with EDO-S101 was added straight after plating 3×10^3 cells in 96-well plates with the stem cells media. Spheres were counted 5 days after treatment under an inverted microscope at ×4 magnification. A sphere was counted if it had at least 15 cells.
(§4) Cells were seeded at a density of 2 × 10^4 cells/ml in 24 well plates. Cells were left to attach and grow in 5% FCS DMEM for 24 h. […] Cells trypsinized and resuspended in 1.0 ml of saline were counted using the NucleoCounterTM NC-100 (automated cell counter systems, Chemotec, Cydevang, DK) in order to evaluate cell viability. […] IC50 values were calculated by the GraFit method (Erithacus Software Limited, Staines, UK). Cell viability was measured with the 3-(4,5 dimethylthiazol-2-yl)-2,5-diphenyl tetrazolium bromide (MTT; Sigma-Aldrich) assay.
(§5) IC50 and IC20 values for all twelve cell lines against bendamustine and vorinostat were also determined as described above. […]

U118MG = assay: GBM cell line viability IC50, U118; format: cell-based; conditions: Homo sapiens, U-118-MG
Method: as §1, §2, §3, §4, §5

U373MG (Uppsala) = assay: GBM cell line viability IC50, U373; format: cell-based; conditions: Homo sapiens, U373 MG
Method: as §1, §2, §3, §4, §5

Mz-54 = assay: GBM cell line viability IC50, Mz54; format: cell-based
Method: as §1, §2, §3, §4, §5

A172 = assay: GBM cell line viability IC50, A172; format: cell-based; conditions: Homo sapiens, A 172
Method: as §1, §2, §3, §4, §5

U138MG = assay: GBM cell line viability IC50, U138; format: cell-based; conditions: Homo sapiens, U138-MG
Method: as §1, §2, §3, §4, §5

LN228 = assay: GBM cell line viability IC50, LN228/LN229; format: cell-based; conditions: Homo sapiens, LN-229
Method: as §1, §2, §3, §4, §5

SW1783 = assay: GBM cell line viability IC50, SW1783; format: cell-based; conditions: Homo sapiens
Method: as §1, §2, §3, §4, §5

LN18 = assay: GBM cell line viability IC50, LN18; format: cell-based; conditions: Homo sapiens, LN-18
Method: as §1, §2, §3, §4, §5

SNB19 = assay: GBM cell line viability IC50, SNB19; format: cell-based; conditions: Homo sapiens, SNB-19
Method: as §1, §2, §3, §4, §5

U251 = assay: s.c. xenograft model of GBM, U251, time to progression; format: in vivo, mice; conditions: for time to progression of the tumours: U251G xenograft
Method: Next, adopting the procedure of Example 3, s.c. xenograft models of GBMs in mice were prepared using the GBM cell lines U251 and U87.
The U251 mice prepared as above were subjected either subjected to radiotherapy (2 Gy for 5 consecutive days), treatment with EDO-S101 (60 mg/kg intravenously at days 1, 8 and 15 of the treatment cycle) or control only. Before any irradiation mice were anesthetized with a mixture of ketamine (25 mg/ml)/xylazine (5 mg/ml). Anesthetized tumor-bearing mice received a focal irradiation at the dose of 2 Gy for 5 consecutive days. Irradiation was delivered using an X-ray linear accelerator at a dose rate of 200 cGy/min at room temperature. All mice were shielded with a specially designed lead apparatus to allow irradiation to the right hind limb. Mice were kept under these conditions until all irradiation finished.
A study was made of the progression of the GBM according to the procedure of Example 3.
In a follow up experiment, U251 mice prepared in the same manner were either subjected to the current gold standard treatment of radiotherapy and temozolomide (2 Gy for 5 consecutive days and 16 mg/kg for 5 consecutive days, po), treatment with EDO-S101 (60 mg/kg, intravenously at days 1, 8 and 15 of the treatment cycle), treatment with EDO-S101 and radiotherapy (2 Gy for 5 consecutive days and 60 mg/kg, intravenously at days 1, 8 and 15 of the treatment cycle) or control.

OCI-LY10B lymphoma cells = assay: Murine model for primary CNS lymphoma, intracerebral OCI-LY10B; format: in vivo, mice; conditions: for tumour growth: iv days +4, +11, +18; for median survival: iv days +4, +11, +18, EDO-S101 60 mg/kg, bendamustine 50 mg/kg, controls 48 days
Method: The procedure of Example 3 was repeated, except the murine models were created with 1×10^5 luciferase-transfected OCI-LY10B lymphoma cells to create a model of primary CNS lymphoma. EDO-S101 (60 mg/kg body weight), bendamustine (50 mg/kg body weight) and control was administered intravenously via a tail vein to separate groups of the test mice on days +4, +11 and +18 post intracerebral implantation of the OCI-LY10B lymphoma cells. […] EDO-S101 therefore appears to be a promising treatment for primary CNS lymphoma.

T98G = assay: GBM cell line viability IC50, T98G; format: cell-based
Method: as §1, §2, §3, §4, §5

[1] = drug in combination with radiotherapy 2 Gy x 5 days, EDO-S101 60 mg/kg iv days 1, 8, 15, temozolomide 16 mg/kg po x 5 days

SMILES | IC50 (U87MG) [µM] | IC50 (U118MG) [µM] | IC50 (U373MG (Uppsala)) [µM] | IC50 (Mz-54) [µM] | IC50 (A172) [µM] | IC50 (U138MG) [µM] | IC50 (LN228) [µM] | IC50 (SW1783; SW1783) [µM] | IC50 (LN18) [µM] | IC50 (SNB19) [µM] | time to progression of the tumours (U251; [1]) | tumour growth (OCI-LY10B lymphoma cells) | median survival (OCI-LY10B lymphoma cells) [days] | other results
Cn1c(CCCCCCC(=O)NO)nc2cc(N(CCCl)CCCl)ccc21 [EDO-S101] | 1.36 | 6.61 | 2.26 | 12.7 | 6.45 | 4.27 | 1.55 | 8.24 | 1.87 | 2.17 | over 50 days | significantly suppressed tumour growth | 62 | time to progression of the tumours (U251; drug alone, 60 mg/kg iv days 1, 8, 15, control approximately 17-18 days): over 50 days; time to progression versus radiotherapy-treated tumours (U251; U251 s.c. xenograft, drug alone, FIG. 11): considerably longer; time to progression versus EDO-S101 alone and versus radiotherapy and temozolomide (U251; U251 s.c. xenograft, drug plus radiotherapy, FIG. 12): significantly longer
Cn1c(CCCC(=O)O)nc2cc(N(CCCl)CCCl)ccc21 [bendamustine] | 50 | 35 | 35 | 60 | 55 | 30 | 35 | 38 | 25 | 32 |  | significantly suppressed tumour growth | 54 | IC50 (T98G; Homo sapiens, T98G): 52 µM
Cn1nnc2c(C(N)=O)ncn2c1=O [temozolomide] |  |  |  |  |  |  |  |  |  |  | 42 days |  |  | IC50 (U87MG; MGMT negative U87G glioblastoma cell line, read-out: IC50): 20 µM; IC50 (T98G; Homo sapiens, MGMT positive T98G glioblastoma cell line, read-out: IC50): > 100 µM; IC50 (T98G; T98G, MGMT pos., no unit in Table 2 (µM), read-out: IC50): > 100 µM; IC50 (U118MG; U118MG, MGMT pos., no unit in Table 2, read-out: IC50): > 100 µM; IC50 (U373MG (Uppsala); U373MG (Uppsala), MGMT neg., no unit in Table 2, read-out: IC50): 80 µM; IC50 (Mz-54; Mz-54, MGMT pos., no unit in Table 2, read-out: IC50): > 100 µM; IC50 (A172; A172, MGMT neg., no unit in Table 2, read-out: IC50): ~100 µM; IC50 (U138MG; U138MG, MGMT pos., no unit in Table 2, read-out: IC50): > 100 µM; IC50 (LN228; LN228, MGMT neg., no unit in Table 2, read-out: IC50): > 100 µM; IC50 (SW1783; SW1783, MGMT neg., no unit in Table 2, read-out: IC50): 80 µM; IC50 (LN18; LN18, MGMT pos., no unit in Table 2, read-out: IC50): > 100 µM; IC50 (SNB19; SNB19, MGMT neg., no unit in Table 2, read-out: IC50): > 100 µM
